Laboratory results reported in patent publication US11827596B2, “Thyromimetics” (Autobahn Therapeutics, Inc., priority 2018, dated 2023).

Key:
TRα = molecular target: T1, TRα (Homo sapiens, UniProt P10827); experiment: Thyroid-hormone reporter-gene assay (Gal4-TR hybrid, luciferase), TRα; format: cell-based; details: HEK293-derived reporter cells, 24 hr incubation
T1 construct: The firefly luciferase reporter under the Gal4 UAS is a separate reporter gene
T1 sequence (P10827 163-410 isoform P10827-2 limits assumed): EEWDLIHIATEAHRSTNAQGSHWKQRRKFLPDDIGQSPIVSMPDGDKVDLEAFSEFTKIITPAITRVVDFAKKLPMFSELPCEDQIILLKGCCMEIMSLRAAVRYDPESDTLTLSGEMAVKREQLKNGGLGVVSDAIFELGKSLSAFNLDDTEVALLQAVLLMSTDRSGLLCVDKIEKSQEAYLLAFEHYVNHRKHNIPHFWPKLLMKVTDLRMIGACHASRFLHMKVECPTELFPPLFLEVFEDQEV
Description: (§1) Reporter cells used in the assays express a TR-receptor hybrid (either TRα or […]) in which the native N-terminal DNA binding domain (DBD) has been replaced with that of the yeast Gal4 DBD. The reporter gene, firefly luciferase, is functionally linked to the Gal4 upstream activation sequence (UAS). Both cell lines were derived from human embryonic kidney (HEK293).
(§2) Step 1: A suspension of reporter cells was prepared in cell recovery medium containing 10% charcoal-stripped FBS, and dispensed into assay plates. The plates were pre-incubated for 6 hours in a cell culture incubator (37° C./5% CO2/85% humidity).
(§3) These Intermediate Stocks were subsequently diluted directly into compound screening medium containing 10% charcoal-stripped FBS to generate “2×-concentration” treatment media (containing 0.2, 0.4 or 0.8% DMSO).
(§4) Step 3: At the end of the pre-incubation period, culture media were discarded from the assay plates, and all wells received 100 μl of compound screening medium. 100 μl of each of the previously prepared “2×-concentration” treatment media were dispensed into duplicate assay wells, thereby achieving the desired final treatment concentrations. The final concentration of DMSO in all assay wells was 0.1, 0.2 or 0.4%. Assay plates were incubated for 24 hr in a cell culture incubator (37° C./5% CO2/85% humidity).
(§5) Step 4: At the 24 h assay endpoint, treatment media were discarded and 100 μl/well of luciferase detection reagent was added. Relative luminometer units (RLUs) were quantified from each assay well.

TRβ = molecular target: T2, TRβ (Homo sapiens, UniProt P10828); experiment: Thyroid-hormone reporter-gene assay (Gal4-TR hybrid, luciferase), TRβ; format: cell-based; details: for T3-benchmarked selectivity index (T3-SI): EC50 (TRα)*T3-EC50 (TRβ)/EC50 (TRβ)*T3-EC50 (TRα), T3 in the same experiment; for EC50: HEK293-derived reporter cells, 24 hr incubation
T2 construct: expressed in transfected cells; host or cells: HEK293-derived reporter cells
T2 sequence (P10828 217-461 limits assumed): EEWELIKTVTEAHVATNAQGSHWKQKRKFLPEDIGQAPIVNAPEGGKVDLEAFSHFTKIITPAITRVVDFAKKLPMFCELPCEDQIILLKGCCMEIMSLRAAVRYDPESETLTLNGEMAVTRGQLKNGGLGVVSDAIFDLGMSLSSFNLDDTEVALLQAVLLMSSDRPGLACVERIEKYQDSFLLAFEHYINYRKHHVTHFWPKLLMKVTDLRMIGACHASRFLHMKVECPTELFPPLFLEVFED
Description: as §1, §2, §3, §4, §5

[1] = Tissue distribution study, brain concentration of parent acid after prodrug dosing; format: in vivo, male C57Bl/6 mice; details: 1 hr after SC dosing (0.1 mg/kg) of the prodrug; parent acid measured; compared to dichloro-prodrug and Sob-AM2 (FIG. 2)
Description: For tissue concentration studies in male C57Bl/6 mice, test compounds are formulated as NMP/solutol/PBS solution, at a concentration of 0.05 mg/mL and dosed at 2 mL/kg with the targeted dose of 0.100 mg/kg via SC injection or oral dosing. […] Tissue homogenates and plasma concentrations of test compounds are determined using LC-MS/MS with lower limits of quantitation of 0.0200 ng/mL or 0.100 ng/g. The pharmacokinetic parameters are determined by non-compartmental methods using WinNonlin.
FIG. 2 depicts brain levels of Compound 2 recorded 1 hr after SC dosing (0.1 mg/kg) of the corresponding prodrug Compound 3.

| Compound | EC50 (TRα) [nM] | T3-benchmarked selectivity index (T3-SI) (TRβ) | EC50 (TRβ) [nM] | functional EC50 (TRβ) (TRβ; TR screening) | brain concentration of the parent acid [1] |
| --- | --- | --- | --- | --- | --- |
| C=C(C)c1cc(OCC(=O)O)cc(Cl)c1Cc1ccc(O)c(C(C)C)c1 [Compound 30, 2-(3-chloro-4-(4-hydroxy-3-isopropylbenzyl)-5-(prop-1-en-2-yl)phenoxy)acetic acid] | 100 to 1000 | ++ (3×<T3-SI≤30×) | 10 to 100 |  |  |
| C=C(C)c1cc(OCC(=O)O)cc(C)c1Cc1ccc(O)c(C(C)C)c1 [Compound 20, 2-(4-(4-hydroxy-3-isopropylbenzyl)-3-methyl-5-(prop-1-en-2-yl)phenoxy)acetic acid] | 100 to 1000 | ++ (3×<T3-SI≤30×) | 10 to 100 |  |  |
| CC(C)c1cc(Cc2c(Cl)cc(OCC(=O)O)cc2C(C)C)ccc1O [Compound 31, 2-(3-chloro-4-(4-hydroxy-3-isopropylbenzyl)-5-isopropylphenoxy)acetic acid] | 10 to 100 | ++ (3×<T3-SI≤30×) | < 10 |  |  |
| CCCc1cc(OCC(=O)O)cc(C)c1Cc1ccc(O)c(C(C)C)c1 [Compound 25, 2-(4-(4-hydroxy-3-isopropylbenzyl)-3-methyl-5-propylphenoxy)acetic acid] | 100 to 1000 | ++ (3×<T3-SI≤30×) | 100 to 1000 |  |  |
| CC(C)c1cc(Cc2c(Cl)cc(OCC(=O)O)cc2C(F)(F)F)ccc1O [Compound 18, 2-(3-chloro-4-(4-hydroxy-3-isopropylbenzyl)-5-(trifluoromethyl)phenoxy)acetic acid] | 10 to 100 | ++ (3×<T3-SI≤30×) | 10 to 100 |  |  |
| Cc1cc(OCC(=O)O)cc(C2CC2)c1Cc1ccc(O)c(C(C)C)c1 [Compound 27, 2-(3-cyclopropyl-4-(4-hydroxy-3-isopropylbenzyl)-5-methylphenoxy)acetic acid] | > 1000 | ++ (3×<T3-SI≤30×) | 100 to 1000 |  |  |
| Cc1cc(OCC(=O)O)cc(Cl)c1Cc1ccc(O)c(C(C)C)c1 [Compound 2, 2-(3-chloro-4-(4-hydroxy-3-isopropylbenzyl)-5-methylphenoxy)acetic acid] | 100 to 1000 | ++ (3×<T3-SI≤30×) | 100 to 1000 |  |  |
| C/C=C/c1cc(OCC(=O)O)cc(C)c1Cc1ccc(O)c(C(C)C)c1 [Compound 23, (E)-2-(4-(4-hydroxy-3-isopropylbenzyl)-3-methyl-5-(prop-1-enyl)phenoxy)acetic acid] | > 1000 | ++ (3×<T3-SI≤30×) | 100 to 1000 |  |  |
| Cc1cc(OCC(=O)O)cc(Br)c1Cc1ccc(O)c(C(C)C)c1 [Compound 5, 2-(3-bromo-4-(4-hydroxy-3-isopropylbenzyl)-5-methylphenoxy)acetic acid] | 10 to 100 | ++ (3×<T3-SI≤30×) | 10 to 100 | equipotent with the di-bromo analog |  |
| Cc1cc(OCC(=O)O)cc(C(F)(F)F)c1Cc1ccc(O)c(C(C)C)c1 [Compound 11, 2-(4-(4-hydroxy-3-isopropylbenzyl)-3-methyl-5-(trifluoromethyl)phenoxy)acetic acid] | 100 to 1000 | ++ (3×<T3-SI≤30×) | 10 to 100 |  |  |
| CCc1cc(OCC(=O)O)cc(Cl)c1Cc1ccc(O)c(C(C)C)c1 [Compound 8, 2-(3-chloro-5-ethyl-4-(4-hydroxy-3-isopropylbenzyl)phenoxy)acetic acid] | 100 to 1000 | ++ (3×<T3-SI≤30×) | 10 to 100 |  |  |
| Cc1cc(OCC(=O)O)cc(C(C)C)c1Cc1ccc(O)c(C(C)C)c1 [Compound 21, 2-(4-(4-hydroxy-3-isopropylbenzyl)-3-isopropyl-5-methylphenoxy)acetic acid] | 10 to 100 | ++ (3×<T3-SI≤30×) | 10 to 100 |  |  |
| CCc1cc(OCC(=O)O)cc(C)c1Cc1ccc(O)c(C(C)C)c1 [Compound 16, 2-(3-ethyl-4-(4-hydroxy-3-isopropylbenzyl)-5-methylphenoxy)acetic acid] | 100 to 1000 | ++ (3×<T3-SI≤30×) | 10 to 100 |  |  |
| CNC(=O)COc1cc(C)c(Cc2ccc(O)c(C(C)C)c2)c(Cl)c1 [Compound 3, 2-(3-chloro-4-(4-hydroxy-3-isopropylbenzyl)-5-methylphenoxy)-N-methylacetamide] |  |  |  |  | dramatic increase in brain concentration of the parent acid |
